Each block holds one molecule with its values, some of them ahead of it.
Assays:
[1] = target: Serine/threonine-protein kinase PLK1 (Homo sapiens) (UniProt P53350); test: Inhibition of human recombinant PLK1 at 500 nM related to control ULK1
[2] = target: Glycogen synthase kinase-3 beta (Homo sapiens) (UniProt P49841); test: Inhibition of human recombinant GSK3B at 500 nM in presence of ATP by radiometric assay relative to control
[3] = target: Serine/threonine-protein kinase 32C (Homo sapiens) (UniProt Q86UX6); test: Inhibition of human recombinant YANK3 at 500 nM in presence of ATP by radiometric assay relative to control
Sequence of Serine/threonine-protein kinase 32C (Homo sapiens) (Q86UX6 whole entry): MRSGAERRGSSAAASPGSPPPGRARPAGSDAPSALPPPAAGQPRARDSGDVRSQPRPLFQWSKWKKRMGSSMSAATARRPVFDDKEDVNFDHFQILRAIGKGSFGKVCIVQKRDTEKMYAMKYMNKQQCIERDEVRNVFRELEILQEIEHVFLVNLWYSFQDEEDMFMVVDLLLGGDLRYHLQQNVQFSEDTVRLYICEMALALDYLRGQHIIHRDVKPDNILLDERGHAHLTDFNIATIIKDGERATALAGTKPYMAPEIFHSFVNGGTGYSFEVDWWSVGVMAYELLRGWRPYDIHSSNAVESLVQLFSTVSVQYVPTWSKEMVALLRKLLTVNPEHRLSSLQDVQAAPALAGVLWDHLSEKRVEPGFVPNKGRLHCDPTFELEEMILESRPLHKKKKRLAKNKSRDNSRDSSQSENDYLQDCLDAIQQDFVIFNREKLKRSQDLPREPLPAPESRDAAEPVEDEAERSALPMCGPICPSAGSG

[4] = target: T1, Myotonin-protein kinase (Homo sapiens) (UniProt Q09013); test: Inhibition of human recombinant DMPK1 at 500 nM related to control ULK1
T1 sequence (whole entry): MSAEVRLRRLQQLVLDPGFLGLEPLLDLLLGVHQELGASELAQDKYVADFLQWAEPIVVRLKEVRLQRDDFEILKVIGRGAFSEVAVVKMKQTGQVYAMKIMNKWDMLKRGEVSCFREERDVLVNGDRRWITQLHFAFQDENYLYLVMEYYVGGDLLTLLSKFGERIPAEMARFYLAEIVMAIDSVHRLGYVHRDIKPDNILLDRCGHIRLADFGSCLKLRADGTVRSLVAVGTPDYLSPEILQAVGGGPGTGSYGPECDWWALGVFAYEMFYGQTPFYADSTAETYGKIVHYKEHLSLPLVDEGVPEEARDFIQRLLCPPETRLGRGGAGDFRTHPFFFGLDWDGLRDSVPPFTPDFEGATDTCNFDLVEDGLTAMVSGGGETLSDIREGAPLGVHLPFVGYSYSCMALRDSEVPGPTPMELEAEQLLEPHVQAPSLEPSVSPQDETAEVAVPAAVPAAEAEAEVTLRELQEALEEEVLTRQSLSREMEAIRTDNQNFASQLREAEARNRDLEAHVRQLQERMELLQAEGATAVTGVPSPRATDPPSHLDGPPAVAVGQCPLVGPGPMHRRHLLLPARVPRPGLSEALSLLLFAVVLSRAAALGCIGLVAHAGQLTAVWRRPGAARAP

[5] = target: Myosin light chain kinase 2, skeletal/cardiac muscle (Homo sapiens) (UniProt Q9H1R3); test: Inhibition of human recombinant skMLCK at 500 nM in presence of ATP by radiometric assay relative to control
Sequence of Myosin light chain kinase 2, skeletal/cardiac muscle (Homo sapiens) (Q9H1R3 whole entry): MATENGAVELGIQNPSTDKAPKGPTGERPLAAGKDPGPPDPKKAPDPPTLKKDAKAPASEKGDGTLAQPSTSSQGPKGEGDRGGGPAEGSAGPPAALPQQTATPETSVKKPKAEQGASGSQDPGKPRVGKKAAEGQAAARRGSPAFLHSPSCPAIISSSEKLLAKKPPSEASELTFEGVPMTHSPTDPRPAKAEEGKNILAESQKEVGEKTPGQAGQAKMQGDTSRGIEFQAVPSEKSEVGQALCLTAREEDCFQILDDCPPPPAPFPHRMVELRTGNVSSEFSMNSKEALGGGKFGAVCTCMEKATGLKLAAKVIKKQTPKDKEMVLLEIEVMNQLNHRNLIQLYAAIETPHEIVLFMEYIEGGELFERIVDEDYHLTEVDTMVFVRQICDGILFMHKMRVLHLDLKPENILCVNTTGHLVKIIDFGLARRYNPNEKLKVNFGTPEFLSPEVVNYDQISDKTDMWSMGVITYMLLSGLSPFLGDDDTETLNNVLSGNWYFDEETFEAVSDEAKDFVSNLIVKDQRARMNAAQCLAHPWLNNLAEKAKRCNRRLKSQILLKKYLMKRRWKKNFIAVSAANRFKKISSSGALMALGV

[6] = target: T2, Serine/threonine-protein kinase TAO3 (Homo sapiens) (UniProt Q9H2K8); test: Inhibition of human recombinant TAO3 at 40 nM related to control ULK1
T2 sequence (whole entry): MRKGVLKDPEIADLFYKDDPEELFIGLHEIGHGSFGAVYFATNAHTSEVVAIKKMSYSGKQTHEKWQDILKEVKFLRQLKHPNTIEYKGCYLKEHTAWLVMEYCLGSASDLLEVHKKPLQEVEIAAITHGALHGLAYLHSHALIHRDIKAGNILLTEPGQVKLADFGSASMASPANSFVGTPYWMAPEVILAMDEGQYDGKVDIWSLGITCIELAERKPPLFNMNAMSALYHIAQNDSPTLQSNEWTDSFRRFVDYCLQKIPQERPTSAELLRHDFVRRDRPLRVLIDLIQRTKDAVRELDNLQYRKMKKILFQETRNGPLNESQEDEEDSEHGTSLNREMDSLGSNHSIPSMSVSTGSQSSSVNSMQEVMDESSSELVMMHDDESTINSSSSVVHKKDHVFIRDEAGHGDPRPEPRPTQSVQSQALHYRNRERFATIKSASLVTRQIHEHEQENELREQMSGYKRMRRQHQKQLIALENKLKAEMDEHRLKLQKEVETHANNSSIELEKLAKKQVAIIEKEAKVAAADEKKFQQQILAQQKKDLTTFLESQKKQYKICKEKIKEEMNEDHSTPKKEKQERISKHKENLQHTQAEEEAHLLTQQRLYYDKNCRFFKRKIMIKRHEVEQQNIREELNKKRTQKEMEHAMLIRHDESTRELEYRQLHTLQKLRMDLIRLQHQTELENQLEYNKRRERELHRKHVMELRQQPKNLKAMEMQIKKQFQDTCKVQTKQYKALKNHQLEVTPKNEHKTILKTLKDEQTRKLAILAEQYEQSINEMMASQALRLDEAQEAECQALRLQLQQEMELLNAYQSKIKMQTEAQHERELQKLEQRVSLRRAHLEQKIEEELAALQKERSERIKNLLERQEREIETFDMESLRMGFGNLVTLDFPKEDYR

[7] = target: Ribosomal protein S6 kinase alpha-3 (Homo sapiens) (UniProt P51812); test: Inhibition of human recombinant RSK2 at 40 nM in presence of ATP by radiometric assay relative to control
Sequence of Ribosomal protein S6 kinase alpha-3 (Homo sapiens) (P51812 whole entry): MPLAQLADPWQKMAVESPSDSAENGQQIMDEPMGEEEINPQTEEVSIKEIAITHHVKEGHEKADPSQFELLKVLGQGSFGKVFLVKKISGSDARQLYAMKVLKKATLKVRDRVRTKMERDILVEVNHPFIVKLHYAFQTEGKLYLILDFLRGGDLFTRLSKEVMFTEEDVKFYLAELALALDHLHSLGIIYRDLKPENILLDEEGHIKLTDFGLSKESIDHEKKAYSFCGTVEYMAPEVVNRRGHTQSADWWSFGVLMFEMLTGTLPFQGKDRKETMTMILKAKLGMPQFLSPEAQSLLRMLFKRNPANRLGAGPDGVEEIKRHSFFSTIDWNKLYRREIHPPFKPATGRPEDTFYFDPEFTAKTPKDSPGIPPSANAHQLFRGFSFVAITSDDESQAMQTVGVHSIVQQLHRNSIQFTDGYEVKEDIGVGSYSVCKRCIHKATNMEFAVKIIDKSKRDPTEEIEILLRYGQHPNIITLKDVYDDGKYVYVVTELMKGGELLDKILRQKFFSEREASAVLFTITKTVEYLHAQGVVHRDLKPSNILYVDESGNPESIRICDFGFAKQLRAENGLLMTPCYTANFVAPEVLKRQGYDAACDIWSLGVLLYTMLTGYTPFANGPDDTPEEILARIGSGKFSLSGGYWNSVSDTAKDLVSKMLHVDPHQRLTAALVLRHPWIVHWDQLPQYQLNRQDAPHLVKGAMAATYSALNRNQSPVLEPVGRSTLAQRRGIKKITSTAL

[8] = target: Serine/threonine-protein kinase Chk2 (Homo sapiens) (UniProt O96017); test: Inhibition of human recombinant CHK2 at 40 nM in presence of ATP by radiometric assay relative to control
Sequence of Serine/threonine-protein kinase Chk2 (Homo sapiens) (O96017 whole entry): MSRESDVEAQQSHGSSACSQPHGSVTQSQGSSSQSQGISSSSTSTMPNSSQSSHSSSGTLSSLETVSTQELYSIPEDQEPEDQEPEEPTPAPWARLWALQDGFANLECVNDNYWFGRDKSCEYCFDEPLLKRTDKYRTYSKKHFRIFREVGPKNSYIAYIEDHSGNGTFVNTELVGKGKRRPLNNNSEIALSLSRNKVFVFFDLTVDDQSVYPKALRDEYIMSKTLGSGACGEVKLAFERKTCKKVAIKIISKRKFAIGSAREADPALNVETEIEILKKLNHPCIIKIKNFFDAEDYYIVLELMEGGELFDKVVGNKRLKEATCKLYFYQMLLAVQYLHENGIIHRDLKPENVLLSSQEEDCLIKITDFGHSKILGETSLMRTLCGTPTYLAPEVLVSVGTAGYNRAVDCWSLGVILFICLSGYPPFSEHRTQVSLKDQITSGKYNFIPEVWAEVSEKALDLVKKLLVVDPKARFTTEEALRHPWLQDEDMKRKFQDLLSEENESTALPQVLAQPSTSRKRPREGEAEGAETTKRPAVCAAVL

[9] = target: Mast/stem cell growth factor receptor Kit (Homo sapiens) (UniProt P10721); test: Inhibition of human recombinant KIT at 15 nM in presence of ATP by radiometric assay relative to control
Sequence of Mast/stem cell growth factor receptor Kit (Homo sapiens) (P10721 whole entry): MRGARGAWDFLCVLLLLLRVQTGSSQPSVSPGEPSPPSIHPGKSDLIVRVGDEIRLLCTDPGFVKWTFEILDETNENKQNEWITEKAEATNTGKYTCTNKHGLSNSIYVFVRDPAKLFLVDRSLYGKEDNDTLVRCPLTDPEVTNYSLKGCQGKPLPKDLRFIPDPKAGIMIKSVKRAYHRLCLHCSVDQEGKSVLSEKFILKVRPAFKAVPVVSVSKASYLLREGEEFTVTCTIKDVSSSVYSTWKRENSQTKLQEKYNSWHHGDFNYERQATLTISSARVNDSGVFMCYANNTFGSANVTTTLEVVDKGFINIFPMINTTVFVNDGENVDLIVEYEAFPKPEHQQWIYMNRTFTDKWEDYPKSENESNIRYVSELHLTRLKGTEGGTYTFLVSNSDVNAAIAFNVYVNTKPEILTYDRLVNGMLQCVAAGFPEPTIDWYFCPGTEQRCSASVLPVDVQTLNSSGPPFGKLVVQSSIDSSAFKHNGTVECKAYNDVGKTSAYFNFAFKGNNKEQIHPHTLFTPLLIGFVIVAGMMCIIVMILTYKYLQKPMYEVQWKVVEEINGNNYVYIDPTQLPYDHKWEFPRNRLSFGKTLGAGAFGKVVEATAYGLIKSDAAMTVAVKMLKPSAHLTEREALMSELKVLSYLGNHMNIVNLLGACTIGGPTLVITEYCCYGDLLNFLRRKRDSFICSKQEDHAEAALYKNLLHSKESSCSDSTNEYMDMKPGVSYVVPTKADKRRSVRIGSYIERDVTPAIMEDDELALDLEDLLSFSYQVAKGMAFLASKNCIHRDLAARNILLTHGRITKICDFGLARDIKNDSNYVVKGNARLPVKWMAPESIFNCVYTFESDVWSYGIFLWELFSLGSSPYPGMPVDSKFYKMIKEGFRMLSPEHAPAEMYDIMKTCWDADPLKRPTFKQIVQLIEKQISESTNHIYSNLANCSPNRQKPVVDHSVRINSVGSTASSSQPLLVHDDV

[10] = target: T3, Serine/threonine-protein kinase STK11 (Homo sapiens) (UniProt Q15831); test: Inhibition of human recombinant LKB1 at 15 nM related to control ULK1
T3 sequence (whole entry): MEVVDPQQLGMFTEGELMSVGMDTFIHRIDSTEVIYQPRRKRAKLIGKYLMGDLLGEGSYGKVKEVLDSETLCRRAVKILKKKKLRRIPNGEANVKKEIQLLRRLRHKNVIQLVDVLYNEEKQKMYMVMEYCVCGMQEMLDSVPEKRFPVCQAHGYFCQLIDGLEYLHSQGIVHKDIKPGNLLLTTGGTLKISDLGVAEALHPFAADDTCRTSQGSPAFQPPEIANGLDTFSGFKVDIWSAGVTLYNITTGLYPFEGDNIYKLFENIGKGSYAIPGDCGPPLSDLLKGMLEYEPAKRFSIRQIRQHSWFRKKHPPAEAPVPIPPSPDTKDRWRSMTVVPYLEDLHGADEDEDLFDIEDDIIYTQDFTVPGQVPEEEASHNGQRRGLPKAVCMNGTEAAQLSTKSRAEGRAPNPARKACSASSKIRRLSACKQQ

[11] = target: Serine/threonine-protein kinase 4 (MST1/STK4) (Homo sapiens) (UniProt Q13043); test: Inhibition of human recombinant MST1 at 15 nM in presence of ATP by radiometric assay relative to control
Sequence of Serine/threonine-protein kinase 4 (MST1/STK4) (Homo sapiens) (Q13043 whole entry, looked up): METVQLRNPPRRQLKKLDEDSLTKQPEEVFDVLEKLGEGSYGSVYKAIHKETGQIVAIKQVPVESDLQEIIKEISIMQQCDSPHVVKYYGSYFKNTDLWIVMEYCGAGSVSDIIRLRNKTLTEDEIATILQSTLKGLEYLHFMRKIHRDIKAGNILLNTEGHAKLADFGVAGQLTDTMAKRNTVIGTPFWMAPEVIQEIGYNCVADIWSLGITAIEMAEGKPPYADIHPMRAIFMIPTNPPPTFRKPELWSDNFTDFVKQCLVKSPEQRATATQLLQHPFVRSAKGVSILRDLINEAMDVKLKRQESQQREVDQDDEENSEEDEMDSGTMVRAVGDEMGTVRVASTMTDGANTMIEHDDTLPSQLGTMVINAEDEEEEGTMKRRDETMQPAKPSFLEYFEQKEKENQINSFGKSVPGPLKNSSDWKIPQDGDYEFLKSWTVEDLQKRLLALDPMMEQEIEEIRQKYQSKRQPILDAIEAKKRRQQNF

Sequence of Serine/threonine-protein kinase PLK1 (Homo sapiens) (P53350 whole entry): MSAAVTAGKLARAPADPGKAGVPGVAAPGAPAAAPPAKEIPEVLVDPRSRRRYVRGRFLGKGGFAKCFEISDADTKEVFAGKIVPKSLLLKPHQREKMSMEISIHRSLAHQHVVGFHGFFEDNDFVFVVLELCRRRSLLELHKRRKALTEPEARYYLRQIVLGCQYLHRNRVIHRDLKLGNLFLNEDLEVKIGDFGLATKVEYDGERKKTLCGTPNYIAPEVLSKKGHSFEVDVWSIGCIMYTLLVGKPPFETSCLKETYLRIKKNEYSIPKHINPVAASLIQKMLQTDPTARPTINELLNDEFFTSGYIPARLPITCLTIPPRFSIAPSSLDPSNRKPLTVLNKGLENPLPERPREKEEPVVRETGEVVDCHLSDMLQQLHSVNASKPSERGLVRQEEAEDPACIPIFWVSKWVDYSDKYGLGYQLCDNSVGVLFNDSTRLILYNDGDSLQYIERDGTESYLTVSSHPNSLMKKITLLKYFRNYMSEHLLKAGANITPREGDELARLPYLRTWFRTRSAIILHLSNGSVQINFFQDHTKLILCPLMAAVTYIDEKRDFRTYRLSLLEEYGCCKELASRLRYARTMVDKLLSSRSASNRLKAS
Sequence of Glycogen synthase kinase-3 beta (Homo sapiens) (P49841 whole entry, looked up): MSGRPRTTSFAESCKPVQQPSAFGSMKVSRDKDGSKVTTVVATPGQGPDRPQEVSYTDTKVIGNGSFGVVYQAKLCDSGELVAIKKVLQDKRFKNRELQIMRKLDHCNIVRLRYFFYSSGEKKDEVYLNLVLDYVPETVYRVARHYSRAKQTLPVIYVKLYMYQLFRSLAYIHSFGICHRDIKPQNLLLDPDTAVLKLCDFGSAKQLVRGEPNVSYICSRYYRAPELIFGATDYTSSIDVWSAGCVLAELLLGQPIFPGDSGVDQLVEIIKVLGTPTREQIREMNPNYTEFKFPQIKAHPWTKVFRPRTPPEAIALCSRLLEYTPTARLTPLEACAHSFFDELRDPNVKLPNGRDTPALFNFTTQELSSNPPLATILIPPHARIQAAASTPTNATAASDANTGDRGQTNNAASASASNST

fold change (FC) [1]: 0 | inhibition [2]: 0% | inhibition [3]: 0% | fold change (FC) [4]: 0 | inhibition [5]: 0%
SMILES: CNC(=O)c1ccccc1Oc1nc(Nc2cc(OC)c(OC)c(OC)c2)ncc1Br

fold change (FC) [6]: 0 | inhibition [7]: 0% | inhibition [8]: 0%
SMILES: O=C(N[C@@H](C1CC1)C(F)(F)F)c1cc(-c2cnn3cc(-c4ccc(F)cc4)cnc23)cs1

inhibition [9]: 0% | fold change (FC) [10]: 0 | inhibition [11]: 3%
SMILES: CC(C)[C@H](NC(=O)c1cc(-c2cnn3cc(-c4ccc(OCCN5CCCCC5)cc4)cnc23)cs1)C(F)(F)F

Source: ChEMBL document CHEMBL5653631, “A Potent and Selective ULK1 Inhibitor Suppresses Autophagy and Sensitizes Cancer Cells to Nutrient Stress” (iScience, 2018)
